Experiments:
[1] = molecular target: Hlr. halophila RC (in LH1–RC–HiPIP complex) (Halorhodospira halophila, UniProt A1WXF6+A1WXF7); test: cryo-EM structure, […] Å; assay type: binding; details: native complex
[2] = molecular target: T1, iso-3 HiPIP (Halorhodospira halophila, UniProt A1WXH6); test: cryo-EM structure, […] Å; assay type: binding; details: native complex; functional N-terminal domain
T1 sequence (A1WXH6 26-145): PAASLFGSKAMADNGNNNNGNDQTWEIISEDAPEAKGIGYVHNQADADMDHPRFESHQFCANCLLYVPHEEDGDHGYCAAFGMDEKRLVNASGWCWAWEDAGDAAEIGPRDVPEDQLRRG

[3] = molecular target: Halorhodospira halophila LH1–RC core complex (Halorhodospira halophila strain BN9622); test: cryo-EM structure

Sequence of Hlr. halophila RC (in LH1–RC–HiPIP complex) (A1WXF7 1-276): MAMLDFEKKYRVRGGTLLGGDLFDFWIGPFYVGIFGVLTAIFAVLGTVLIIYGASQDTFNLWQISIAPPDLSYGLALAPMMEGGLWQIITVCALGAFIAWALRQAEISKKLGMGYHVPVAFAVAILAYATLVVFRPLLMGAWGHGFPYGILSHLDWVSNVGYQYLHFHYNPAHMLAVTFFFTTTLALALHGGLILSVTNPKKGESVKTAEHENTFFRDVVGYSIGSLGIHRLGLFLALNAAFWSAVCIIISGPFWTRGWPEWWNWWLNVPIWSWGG
Sequence of Hlr. halophila RC (in LH1–RC–HiPIP complex) (A1WXF6 1-323): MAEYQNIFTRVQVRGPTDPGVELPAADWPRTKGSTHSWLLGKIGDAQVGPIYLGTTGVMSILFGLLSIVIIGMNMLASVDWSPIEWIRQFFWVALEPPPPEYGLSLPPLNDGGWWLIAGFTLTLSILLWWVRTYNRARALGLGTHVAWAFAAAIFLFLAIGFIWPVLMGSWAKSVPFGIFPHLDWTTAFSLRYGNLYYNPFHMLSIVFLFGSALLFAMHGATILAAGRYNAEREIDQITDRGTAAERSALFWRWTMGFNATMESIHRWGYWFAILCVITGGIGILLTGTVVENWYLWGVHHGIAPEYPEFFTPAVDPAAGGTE
Sequence of Hlr. halophila RC (in LH1–RC–HiPIP complex) (A1WXI3 1-278 partner): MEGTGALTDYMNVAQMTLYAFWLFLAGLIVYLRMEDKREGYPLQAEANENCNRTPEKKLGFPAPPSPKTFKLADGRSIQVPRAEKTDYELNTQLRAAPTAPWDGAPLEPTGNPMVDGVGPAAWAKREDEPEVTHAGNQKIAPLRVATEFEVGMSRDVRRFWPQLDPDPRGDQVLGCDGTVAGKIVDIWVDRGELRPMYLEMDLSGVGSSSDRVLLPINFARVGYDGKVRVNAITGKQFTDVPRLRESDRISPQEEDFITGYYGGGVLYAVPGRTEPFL
Sequence of Hlr. halophila RC (in LH1–RC–HiPIP complex) (A1WXF5 26-362 partner): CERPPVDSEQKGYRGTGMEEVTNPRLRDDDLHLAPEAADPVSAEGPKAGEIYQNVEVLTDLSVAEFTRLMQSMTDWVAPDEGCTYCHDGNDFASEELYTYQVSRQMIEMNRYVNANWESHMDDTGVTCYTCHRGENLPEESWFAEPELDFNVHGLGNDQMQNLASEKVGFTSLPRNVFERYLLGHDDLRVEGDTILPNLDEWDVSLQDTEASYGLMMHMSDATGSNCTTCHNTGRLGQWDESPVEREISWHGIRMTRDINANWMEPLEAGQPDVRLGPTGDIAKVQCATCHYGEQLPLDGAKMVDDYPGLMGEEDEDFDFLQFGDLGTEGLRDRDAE

In the case of `CC[C@H]1c2cc3[nH]c4c(c3C)C(=O)[C@H](C(=O)OC)c4c3nc(cc4[nH]c(cc(n2)[C@@H]1C)c(C(C)=O)c4C)[C@@H](C)[C@@H]3CCC(=O)OC/C=C(\C)CCC[C@H](C)CCC[C@H](C)CCCC(C)C` [BPhe], the “cryo-EM structure, 2.44 Å” value ([1]; RC pigment, printed only as BPhe) is reported as “BPhe, orange sticks”.

With `COC1=C(OC)C(=O)C(C/C=C(\C)CC/C=C(\C)CC/C=C(\C)CC/C=C(\C)CC/C=C(\C)CC/C=C(\C)CC/C=C(\C)CCC=C(C)C)=C(C)C1=O` [UQ-8, ubiquinone-8] the “cryo-EM structure, 2.44 Å” value ([1]; QB site) was “one MQ-8 and one UQ-8 were identified unambiguously at the RC QA and QB sites”.

In the case of `[S]12[Fe]3[S]4[Fe]1[S]1[Fe]2[S]3[Fe]41` [4Fe–4S, 4Fe–4S cluster], the “cryo-EM structure, 2.44 Å” value [2] is reported as “N-terminal functional portion containing the 4Fe–4S cluster”.

With “Halorhodospira halophila iso-3 high-potential iron–sulfur protein (HiPIP) (natural protein)” the percent of LH1–RC particles with bound HiPIP [3] was 66.7%.

In the case of `CC(C)=CCC/C(C)=C/CC/C(C)=C/CC/C(C)=C/CC/C(C)=C/CC/C(C)=C/CC/C(C)=C/CC/C(C)=C/CC1=C(C)C(=O)c2ccccc2C1=O` [MQ-8, menaquinone-8], the “cryo-EM structure, 2.44 Å” value ([1]; QA site) is reported as “one MQ-8 and one UQ-8 were identified unambiguously at the RC QA and QB sites”.

— paper PMC11724841 (Communications Biology, 2025)
